These results are taken from patent US20230099293A1, “OGA INHIBITOR COMPOUNDS” (priority 2019, published 2023).

Some results are limits rather than exact numbers.

One series addresses T1, hOGA (Homo sapiens, UniProt O60502).
T1 construct: endogenous in cells; host or cells: HEK293 cells inducible for P301L mutant human Tau (isoform 2N4R)
T1 sequence (O60502 1-916): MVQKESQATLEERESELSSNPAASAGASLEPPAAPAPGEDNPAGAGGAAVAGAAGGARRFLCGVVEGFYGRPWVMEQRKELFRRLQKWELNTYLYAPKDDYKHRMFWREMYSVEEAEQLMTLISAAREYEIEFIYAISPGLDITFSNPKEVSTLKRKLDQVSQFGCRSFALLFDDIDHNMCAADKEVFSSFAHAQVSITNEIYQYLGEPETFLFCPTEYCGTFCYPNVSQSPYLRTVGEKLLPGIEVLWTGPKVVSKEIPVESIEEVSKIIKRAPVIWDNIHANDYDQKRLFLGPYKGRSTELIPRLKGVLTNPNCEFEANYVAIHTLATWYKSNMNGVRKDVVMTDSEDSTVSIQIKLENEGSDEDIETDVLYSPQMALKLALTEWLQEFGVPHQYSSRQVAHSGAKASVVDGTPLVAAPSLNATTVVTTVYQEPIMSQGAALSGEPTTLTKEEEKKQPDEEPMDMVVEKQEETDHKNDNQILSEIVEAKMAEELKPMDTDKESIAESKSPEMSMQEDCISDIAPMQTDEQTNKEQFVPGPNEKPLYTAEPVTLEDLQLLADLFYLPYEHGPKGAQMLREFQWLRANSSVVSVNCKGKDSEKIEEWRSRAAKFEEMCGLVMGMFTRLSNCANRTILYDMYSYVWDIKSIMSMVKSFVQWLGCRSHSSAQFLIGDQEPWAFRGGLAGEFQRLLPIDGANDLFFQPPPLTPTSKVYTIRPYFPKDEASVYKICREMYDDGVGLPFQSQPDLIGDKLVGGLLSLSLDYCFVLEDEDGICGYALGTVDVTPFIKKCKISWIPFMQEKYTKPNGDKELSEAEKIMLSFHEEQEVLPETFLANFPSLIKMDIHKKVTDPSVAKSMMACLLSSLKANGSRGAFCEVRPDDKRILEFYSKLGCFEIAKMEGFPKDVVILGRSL
The experiment in a line: OGA cellular assay (ICC detection of O-GlcNAcylated proteins in HEK293 cells inducible for P301L mutant human Tau). The class given is cell-based. The conditions noted are these: for EC50: Cellular hOGA, pEC50, Table 5; for Emax: HEK293, read-out: Cellular Emax (%). Further details: Emax: dose or concentration left out as unconfirmed. In outline: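 HEK293 cells inducible for P301L Tau (2N4R), seeded in low-glucose medium, treated with compound for 6 h at 0.2% DMSO. After PFA fixation, O-GlcNAcylated proteins stained with CTD110.6 and imaged (488 nm intensity, 9 fields/well); Hoechst nuclei count for toxicity. IC50 by non-linear regression, Thiamet-G 200 μM as maximum.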

For series [1], the target named is T2, recombinant human Meningioma Expressed Antigen 5 (MGEA5), also referred to as O-GlcNAcase (OGA) (Homo sapiens, UniProt O60502).
T2 construct: Full length OGA enzyme was purchased at OriGene (cat #TP322411); purchased OriGene TP322411
T2 sequence (O60502 1-916): T1 sequence (O60502 1-916)
The experiment in a line: OGA biochemical assay (inhibition of FM-GlcNAc hydrolysis, fluorescence). The conditions noted are these: for IC50: Enzymatic hOGA, pIC50, Table 5; for Emax: read-out: Enzymatic Emax (%). In outline: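 Full-length recombinant OGA at 2 nM with 100 uM FM-GlcNAc in 200 mM citrate/phosphate buffer, 0.005% Tween-20. IC50 and Hill coefficient from curve fit between no-inhibitor and saturating standard-inhibitor controls.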

[2] abbreviates: HEK293 P301L Tau cells, 6 hours incubation, O-GlcNAcylation readout.
Where [3] appears, read: full length OGA 2 nM, FM-GlcNAc 100 uM, 6 h at room temperature.

With `Cc1nccc(C(F)F)c1Nc1nccc2c1ncn2CC(=O)N(C)C` [Compound 27], the melting point was 216.6 °C. This molecule registered an EC50 at hOGA (setting [2]) above 1000 nM. Besides, the Emax on hOGA was 18%. Further, the IC50 in series [1] (setting [3]) was 372 nM. Besides, in series [1], the Emax was 89%.

Consider `Cc1cc(C(F)(F)F)cc(C)c1Nc1nccc2c1ncn2C(C)C(=O)N(C)C` (stereo not drawn) [Compound 72], for which the melting point is 199.9 °C. Further, the Emax at hOGA was 2%. For the same molecule, on hOGA (Table 5, HEK293 P301L Tau cells, 6 hours incubation, O-GlcNAcylation readout), the “Cellular hOGA; pEC50” value was below 6. In addition, at hOGA (second table, averaged values over several runs, obtained after recalibration of the equipment), the “Cellular hOGA; pEC50” value is given as below 6. In series [1] (Table 5, full length OGA 2 nM, FM-GlcNAc 100 uM, 6 h at room temperature), the “Enzymatic hOGA; pIC50” value was 6.26. Moreover, the Emax in series [1] stood at 92%.

For the molecule `COc1cccc(-n2nc(C)c(Nc3nccc4c3ncn4CC(=O)N(C)C)c2C)c1` [Compound 36], the melting point was determined as 179.7 °C. This molecule also had an EC50 at hOGA (setting [2]) of 603 nM. Besides, the Emax at hOGA was 55%. Moreover, in series [1] (setting [3]), the IC50 was 29.5 nM. Further, the Emax in series [1] is 101%.

`Cc1cc(C(F)(F)F)cc(C)c1Nc1nccc2c1ncn2CC(=O)N(C)C` [Compound 61, 2-(4-((2,6-Dimethyl-4-(trifluoromethyl)phenyl)amino)-1H-imidazo[4,5-c]pyridin-1-yl)-N,N-dimethylacetamide] came in with a melting point of 207.65 °C. Moreover, on hOGA (setting [2]), the EC50 was 107 nM. In addition, at hOGA, the Emax is 87%. The IC50 in series [1] (setting [3]) is 9.33 nM. Also, in series [1], the Emax is 98%.

`Cc1cc(Cn2cnc3c(Nc4c(C)cc(C(F)(F)F)cc4C)nccc32)no1` [Compound 80] had a melting point of 164.7 °C. Besides, the Emax on hOGA was found to be 94%. In addition, the IC50 in series [1] (setting [3]) was 8.91 nM. Also, the Emax in series [1] worked out at 104%.

With `CN(C)C(=O)Cn1cnc2c(Nc3c(Cl)cc(F)cc3Cl)nccc21` [Compound 21], the melting point is 243.4 °C. For the same molecule, the response on hOGA (setting [2]) was half-maximal at 123 nM (EC50). Also, on hOGA, the Emax was 69%. For the same molecule, in series [1] (setting [3]), the IC50 is 30.9 nM. Moreover, in series [1], the Emax was found to be 95%.
